Measurements published in patent US20050222200A1, “AMIDE DERIVATIVES AS ION CHANNEL LIGANDS AND PHARMACEUTICAL COMPOSITIONS AND METHODS OF USING THE SAME” (Renovis, Inc., priority 2003, published 2005).

These molecules were tested against T1, VR1 (Homo sapiens, UniProt Q8NER1) (assay: High throughput calcium imaging assay of VR1 antagonists (Fura2, Flex Station, 96 well)). Conditions: Table 1 activity class.
T1 construct: expressed in transfected cells; host or cells: 293 cells ("293 neurons" [sic])
T1 sequence (Q8NER1 whole entry, species assumed): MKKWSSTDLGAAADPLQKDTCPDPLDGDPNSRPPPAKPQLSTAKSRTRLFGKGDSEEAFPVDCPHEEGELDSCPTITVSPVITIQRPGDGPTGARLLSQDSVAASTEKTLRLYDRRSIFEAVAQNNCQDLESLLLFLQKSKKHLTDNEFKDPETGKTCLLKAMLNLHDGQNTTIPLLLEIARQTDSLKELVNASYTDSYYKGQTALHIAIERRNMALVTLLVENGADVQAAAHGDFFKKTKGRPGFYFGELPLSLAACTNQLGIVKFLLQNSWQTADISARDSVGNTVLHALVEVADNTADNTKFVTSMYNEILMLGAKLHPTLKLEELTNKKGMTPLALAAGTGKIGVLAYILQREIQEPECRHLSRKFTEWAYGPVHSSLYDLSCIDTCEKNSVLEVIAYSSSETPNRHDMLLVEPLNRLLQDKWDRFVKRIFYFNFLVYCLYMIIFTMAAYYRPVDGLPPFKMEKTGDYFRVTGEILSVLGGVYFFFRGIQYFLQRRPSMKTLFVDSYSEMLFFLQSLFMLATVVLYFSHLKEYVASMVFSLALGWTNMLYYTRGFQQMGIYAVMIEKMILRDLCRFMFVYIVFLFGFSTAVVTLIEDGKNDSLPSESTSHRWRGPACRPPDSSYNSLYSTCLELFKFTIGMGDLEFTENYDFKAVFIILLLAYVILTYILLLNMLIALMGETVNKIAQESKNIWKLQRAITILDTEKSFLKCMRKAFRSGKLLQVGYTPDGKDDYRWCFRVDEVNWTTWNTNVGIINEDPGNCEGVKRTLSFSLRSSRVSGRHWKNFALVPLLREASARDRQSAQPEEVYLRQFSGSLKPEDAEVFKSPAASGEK
Format: cell-based
Further: test concentration or dose not given here.

SMILES | inhibition of calcium ion influx induced by capsaicin stimulation
CCN(CC)c1ccc(NC(=O)c2ccc(/C=C/C(C)(C)C)cc2)cc1 [Compound 62] | ++++ (compound exhibited 75% or greater inhibition of calcium ion influx induced by capsaicin stimulation)
Cc1ccnc(NC(=O)c2ccc(/C=C/C(C)(C)C)cc2)c1 [Compound 64] | + (compound exhibited 0-25% inhibition of calcium ion influx induced by capsaicin stimulation)
CN1CCC(NC(=O)c2ccc(/C=C/C(C)(C)C)cc2)CC1 [Compound 65] | + (compound exhibited 0-25% inhibition of calcium ion influx induced by capsaicin stimulation)
CC(C)(C)/C=C/c1ccc(C(=O)Nc2ccc3[nH]ccc3c2)cc1 [Compound 66] | ++ (compound exhibited 25-50% inhibition of calcium ion influx induced by capsaicin stimulation)
CC(C)(C)/C=C/c1ccc(C(=O)Nc2ccncn2)cc1 [Compound 67] | + (compound exhibited 0-25% inhibition of calcium ion influx induced by capsaicin stimulation)
Cc1cccnc1NC(=O)c1ccc(/C=C/C(C)(C)C)cc1 [Compound 68] | +++ (compound exhibited 50-75% inhibition of calcium ion influx induced by capsaicin stimulation)
CC(C)(C)/C=C/c1ccc(C(=O)Nc2ccc(Br)cn2)cc1 [Compound 69] | + (compound exhibited 0-25% inhibition of calcium ion influx induced by capsaicin stimulation)
CC(C)(C)/C=C/c1ccc(C(=O)Nc2ccc(C(F)(F)F)cn2)cc1 [Compound 70] | + (compound exhibited 0-25% inhibition of calcium ion influx induced by capsaicin stimulation)
CC(C)(C)/C=C/c1ccc(C(=O)Nc2ncc(C(F)(F)F)cc2Cl)cc1 [Compound 71] | + (compound exhibited 0-25% inhibition of calcium ion influx induced by capsaicin stimulation)
CCc1ccnc(NC(=O)c2ccc(/C=C/C(C)(C)C)cc2)c1 [Compound 72] | + (compound exhibited 0-25% inhibition of calcium ion influx induced by capsaicin stimulation)
CC(C)(C)/C=C/c1ccc(C(=O)Nc2ccc(Cl)nc2)cc1 [Compound 74] | +++ (compound exhibited 50-75% inhibition of calcium ion influx induced by capsaicin stimulation)
COc1ccc(NC(=O)c2ccc(/C=C/C(C)(C)C)cc2)cn1 [Compound 75] | ++ (compound exhibited 25-50% inhibition of calcium ion influx induced by capsaicin stimulation)
CC(C)(C)/C=C/c1ccc(C(=O)Nc2ccnc(Cl)c2)cc1 [Compound 76] | ++++ (compound exhibited 75% or greater inhibition of calcium ion influx induced by capsaicin stimulation)
Cc1nccc(NC(=O)c2ccc(/C=C/C(C)(C)C)cc2)n1 [Compound 77] | + (compound exhibited 0-25% inhibition of calcium ion influx induced by capsaicin stimulation)
CC(C)(C)/C=C/c1ccc(C(=O)Nc2ccc3ncccc3c2)cc1 [Compound 78] | ++++ (compound exhibited 75% or greater inhibition of calcium ion influx induced by capsaicin stimulation)
CC(C)(C)/C=C/c1ccc(C(=O)NCc2cccnc2)cc1 [Compound 80] | + (compound exhibited 0-25% inhibition of calcium ion influx induced by capsaicin stimulation)
CN(C)c1ccc(CNC(=O)c2ccc(/C=C/C(C)(C)C)cc2)cc1 [Compound 81] | + (compound exhibited 0-25% inhibition of calcium ion influx induced by capsaicin stimulation)
COc1ccccc1CNC(=O)c1ccc(/C=C/C(C)C)cc1 [Compound 87] | + (compound exhibited 0-25% inhibition of calcium ion influx induced by capsaicin stimulation)

SMILES | inhibition of calcium ion influx induced by capsaicin stimulation
CC(C)/C=C/c1ccc(C(=O)NCc2ccco2)cc1 [Compound 88] | ++ (compound exhibited 25-50% inhibition of calcium ion influx induced by capsaicin stimulation)
CC(C)/C=C/c1ccc(C(=O)NCc2ccncc2)cc1 [Compound 93] | + (compound exhibited 0-25% inhibition of calcium ion influx induced by capsaicin stimulation)
CC(C)/C=C/c1ccc(C(=O)NC(c2ccccc2)c2ccccc2)cc1 [Compound 95] | ++ (compound exhibited 25-50% inhibition of calcium ion influx induced by capsaicin stimulation)
CC(C)/C=C/c1ccc(C(=O)NCCc2ccccc2Cl)cc1 [Compound 98] | + (compound exhibited 0-25% inhibition of calcium ion influx induced by capsaicin stimulation)
CC(C)/C=C/c1ccc(C(=O)Nc2ccncc2)cc1 [Compound 105] | ++ (compound exhibited 25-50% inhibition of calcium ion influx induced by capsaicin stimulation)
CC(C)/C=C/c1ccc(C(=O)Nc2cccnc2)cc1 [Compound 106] | ++ (compound exhibited 25-50% inhibition of calcium ion influx induced by capsaicin stimulation)
CC(C)/C=C/c1ccc(C(=O)NCC2CCCO2)cc1 (centres unmarked) [Compound 109] | ++ (compound exhibited 25-50% inhibition of calcium ion influx induced by capsaicin stimulation)
CC(C)/C=C/c1ccc(C(=O)NCc2ccc3c(c2)OCO3)cc1 [Compound 111] | +++ (compound exhibited 50-75% inhibition of calcium ion influx induced by capsaicin stimulation)
CC(C)/C=C/c1ccc(C(=O)NCCN2CCOCC2)cc1 [Compound 112] | ++ (compound exhibited 25-50% inhibition of calcium ion influx induced by capsaicin stimulation)
CC(C)/C=C/c1ccc(C(=O)NCCc2ccc(S(N)(=O)=O)cc2)cc1 [Compound 116] | + (compound exhibited 0-25% inhibition of calcium ion influx induced by capsaicin stimulation)
COc1cc(CNC(=O)c2ccc(/C=C/C(C)C)cc2)cc(OC)c1OC [Compound 117] | + (compound exhibited 0-25% inhibition of calcium ion influx induced by capsaicin stimulation)
CC(C)/C=C/c1ccc(C(=O)NCc2ccccn2)cc1 [Compound 120] | + (compound exhibited 0-25% inhibition of calcium ion influx induced by capsaicin stimulation)
COc1ccc(CCNC(=O)c2ccc(/C=C/C(C)C)cc2)cc1OC [Compound 121] | +++ (compound exhibited 50-75% inhibition of calcium ion influx induced by capsaicin stimulation)
CC(C)/C=C/c1ccc(C(=O)NCCc2c[nH]c3ccccc23)cc1 [Compound 123] | + (compound exhibited 0-25% inhibition of calcium ion influx induced by capsaicin stimulation)
CC(C)/C=C/c1ccc(C(=O)NCCN2CCNCC2)cc1 [Compound 125] | ++++ (compound exhibited 75% or greater inhibition of calcium ion influx induced by capsaicin stimulation)
CCNC(=O)c1ccc(/C=C/C(C)C)cc1 [Compound 126] | ++ (compound exhibited 25-50% inhibition of calcium ion influx induced by capsaicin stimulation)
CC(C)/C=C/c1ccc(C(=O)NCc2cccs2)cc1 [Compound 127] | ++ (compound exhibited 25-50% inhibition of calcium ion influx induced by capsaicin stimulation)
